Tests used:
[1] = system: maximal electroshock seizures; assay: Maximal electroshock seizure (MES) test, mouse, i.p.; type: in vivo, mouse (male Carworth Farms #1); settings: for ED50: Mus musculus, ip; for ED50 / P.I., TD50/ED50, MES: mice, Table 5; for ASP Group Classification, MES Test: mouse, 30, 100 and 300 mg/kg
From the text: The hydrazones, hydrazines and semicarbazones derived from pyridyl ketones and the resulting orally effective anticonvulsant compositions of this invention are useful in the treatment of convulsive disorders. […] A series of hydrazones, hydrazines and semicarbazones derived from pyridyl ketones of this invention has been evaluated for anticonvulsant activity by the intraperitoneal (i.p.) and by the oral (p.o.) route using two standard seizure models in the mouse and in the rat, the maximal electroshock seizure (MES) test and the subcutaneous pentylenetetrazole (Metrazole) seizure threshold (scMet) test. […] In addition, the compounds are evaluated in a new model, the threshold tonic extension (TTE) model. […] Thus active compounds that may be missed in the MES and […] the mouse, i.p., can be detected in the TTE test. Based on the screening results, the compounds are placed in one of three categories. […] Class II compounds show anticonvulsant activity at doses greater than 100 mg/kg or show activity at 100 mg/kg which is not reinforced by similar activity at 300 mg/kg. […] The Class I compounds are those which are most promising as anticonvulsants. […] In mice. i.p.: All compounds are emulsified in 0.5% methylcellulose. The solvent has been tested for anticonvulsant and toxic effects and found to introduce no significant bias into the testing of anticonvulsant activity. The compounds are administered intraperitoneally in a volume of 0.01 ml/gm to male Carworth Farms #1 mice weighing about 20 gm. All compounds are tested at least at three dose levels (30, 100 and 300 mg/kg) at 30 minutes and 4 hours after their administration. The Maximal Electroshock Seizure Test (MES): Maximal electroshock seizures are elicited with a 60 Hz alternating current of 50 mA intensity in mice and about 150 mA intensity in rats (5-7 times that necessary to elicit minimal electroshock seizures), delivered for 0.2 sec via corneal electrodes. A drop of 0.9% saline is instilled in the eye prior to application of the electrodes in order to […]. Abolition of the hind limb tonic extension component of the seizure is defined as protection and results are expressed as number of animals protected/number of animals tested. Anticonvulsant Quantification in Mice, i.p.: The ED50 values are determined in the MES, scMet and rotorod ataxia test.

[2] = in vivo; design: species or system mouse (male Carworth Farms #1); settings: mouse, ip
Protocol: (§1) Neurotoxicity is determined by the rotorod ataxia test in mice and by the positional sense test and gait and stance test in the rat.
Neurotoxicity is evaluated in mice by the rotorod ataxia test. The animal is placed on a wooden rod of 1 and 1/8" diameter rotating at 6 rpm. Normal mice can remain on a rod rotating at this speed indefinitely.
(§2) Anticonvulsant Quantification in Mice, i.p.: The ED50 values are determined in the MES, scMet and rotorod ataxia test.

[3] = system: subcutaneous pentylenetetrazole (Metrazole) seizure; assay: Subcutaneous pentylenetetrazole (Metrazole) seizure threshold test (scMet), mouse, i.p.; type: in vivo, mouse (male Carworth Farms #1); settings: ip, mice, Table 5
From the text: (§3) The hydrazones, hydrazines and semicarbazones derived from pyridyl ketones and the resulting orally effective anticonvulsant compositions of this invention are useful in the treatment of convulsive disorders. […] A series of hydrazones, hydrazines and semicarbazones derived from pyridyl ketones of this invention has been evaluated for anticonvulsant activity by the intraperitoneal (i.p.) and by the oral (p.o.) route using two standard seizure models in the mouse and in the rat, the maximal electroshock seizure (MES) test and the subcutaneous pentylenetetrazole (Metrazole) seizure threshold (scMet) test. […] In addition, the compounds are evaluated in a new model, the threshold tonic extension (TTE) model. […] Thus active compounds that may be missed in the MES and scMet tests in the mouse, i.p., can be detected in the TTE test.
In mice. i.p.: All compounds are emulsified in 0.5% methylcellulose. The solvent has been tested for anticonvulsant and toxic effects and found to introduce no significant bias into the testing of anticonvulsant activity. The compounds are administered intraperitoneally in a volume of 0.01 ml/gm to male Carworth Farms #1 mice weighing about 20 gm. All compounds are tested at least at three dose levels (30, 100 and 300 mg/kg) at 30 minutes and 4 hours after their administration.
(§4) The Subcutaneous Pentylenetetrazol (Metrazole) Seizure Treshold Test (scMET): A 0.5 % solution of 85 mg/kg of pentylenetetrazole is administered subcutaneously in the posterior midline 30 minutes or 4 hours after drug administration to the animal. Failure to observe even a threshold seizure (a single episode of clonic spasms of at least 5 sec duration) is defined as protection and the results are expressed as number of animals protected/number of animals tested.
as §2

[4] = system: maximal electroshock seizures; assay: Maximal electroshock seizure (MES) test, rat, p.o.; type: in vivo, rat (Sprague-Dawley); settings: for responders at 30 mg/kg / ED50: po; for responders at 30 mg/kg: several time points over a 4 hour period, read-out: Percent Protection at 30 mg/kg, in the MES test; for P.I., TD50/ED50, MES: Table 6
From the text: The hydrazones, hydrazines and semicarbazones derived from pyridyl ketones and the resulting orally effective anticonvulsant compositions of this invention are useful in the treatment of convulsive disorders. […] A series of hydrazones, hydrazines and semicarbazones derived from pyridyl ketones of this invention has been evaluated for anticonvulsant activity by the intraperitoneal (i.p.) and by the oral (p.o.) route using two standard seizure models in the mouse and in the rat, the maximal electroshock seizure (MES) test and the subcutaneous pentylenetetrazole (Metrazole) seizure threshold (scMet) test. […] In addition, the compounds are evaluated in a new model, the threshold tonic extension (TTE) model. […] Thus active compounds that may be missed in the MES and […] the mouse, i.p., can be detected in the TTE test. The Maximal Electroshock Seizure Test (MES): Maximal electroshock seizures are elicited with a 60 Hz alternating current of 50 mA intensity in mice and about 150 mA intensity in rats (5-7 times that necessary to elicit minimal electroshock seizures), delivered for 0.2 sec via corneal electrodes. A drop of 0.9% saline is instilled in the eye prior to application of the electrodes in order to […]. Abolition of the hind limb tonic extension component of the seizure is defined as protection and results are expressed as number of animals protected/number of animals tested. […] This species will be the subject of the complete anticonvulsant quantification test evaluation as described above, but after oral (gavage) administration of the candidate compound.

[5] = in vivo; design: species or system rat (Sprague-Dawley); settings: rat, po
Protocol: as §1
(§5) This species will be the subject of the complete anticonvulsant quantification test evaluation as described above, but after oral (gavage) administration of the candidate compound.
Neurological deficit in rats is examined by the positional sense test and gait and stance test. […] Inability to do so rapidly indicates a neurologic deficit. In the gait and stance test, a neurologic deficit is indicated by a circular or a zigzag gait, ataxia, abnormal spread of the legs, abnormal body posture, tremor, hyperactivity, lack of exploratory behavior, somnolence, stupor, or catalepsy.

[6] = system: subcutaneous pentylenetetrazole (Metrazole) seizure; assay: Subcutaneous pentylenetetrazole (Metrazole) seizure threshold test (scMet), rat, p.o.; type: in vivo, rat (Sprague-Dawley); settings: po, rats, Table 6
From the text: as §3, §4, §5

[7] = system: TTE seizure; assay: Threshold tonic extension (TTE) test, mouse, i.p.; type: in vivo
From the text: as §3
The Threshold Tonic Extension (TTE) Test: The TTE test (Piredda et al., 1985) is a clinically nonselective, electroconvulsive seizure model that identifies compounds that raise seizure threshold as well as those that prevent seizure spread. […] The test is similar to the MES screen but uses a lower level of electrical current. The lower current makes the TTE test more sensitive but less discriminate than the MES screen. This ability makes the model attractive because it allows us to identify compounds that may be missed by our standard identification screen.
Twenty mice are pretreated intraperitoneally with 100 mg/kg of the test substance. At several time intervals (1/4, 1/2, 1, 2, and 4 hours) post treatment with the test drug, four mice at each time point are challenged with 12.5 mA of electrical current for 0.2 seconds via corneal electrodes. This produces a TTE seizure in the animals (Woodbury and Davenport, 1952).
For each time interval results are expressed as a ratio of the number of animals protected over the number tested. […] The positives may represent compounds acting by novel mechanisms.

[8] = Rattus norvegicus, rats, Table 6, read-out: ED50, MES
[9] = rat, Table 7, read-out: Anticonvulsant Efficacy (ED50, mg/kg) in the MES Test

Row | Compound | ED50 [1] [mg/kg] | P.I., TD50/ED50, MES [1] | ASP Group Classification, MES Test [1] | TD50 [2] [mg/kg] | ED50 [3] [mg/kg] | responders at 30 mg/kg ([4]; rat, 30 mg/kg) [%] | protection at 30 mg/kg, MES Test ([4]; rat, 30 mg/kg, Table 7) | TD50 [5] [mg/kg] | ED50 [6] [mg/kg] | ED50 [4, 8] [mg/kg] | P.I., TD50/ED50, MES ([4]; rats) | ED50 ([7]; Mus musculus, ip, mice, Table 5) [mg/kg] | ASP Group Classification, TTE Test ([7]; mouse, 100 mg/kg) | TTE Test (Percent Protection) ([7]; mouse, 100 mg/kg) [%] | ED50 [4, 9] [mg/kg]
1 | NC(=O)NN=C(c1ccccc1)c1ccncc1 [Compound 15, Phenyl 4-pyridyl ketone semicarbazone] | 57.5 | 2.79 | I (They demonstrate anticonvulsant activity in either the MES test or the scMet test, or both at doses of 100 mg/kg or 30 mg/kg without signs of neurological deficit and thus have an estimated protective index of greater than 1) | 160 | > 300 | 50 to 100 | 50-100% | – | – | – | – | – | – | – | –
2 | CC(=NNc1cccc(Cl)c1)c1ccncc1 [Compound 3, Methyl 4-pyridyl ketone 3-chlorophenyl hydrazone] | 81.8 | 5.39 | II (show anticonvulsant activity at doses greater than 100 mg/kg or show activity at 100 mg/kg which is not reinforced by similar activity at 300 mg/kg) | 441 | > 500 | 50 to 100 | – | > 500 | > 250 | 36.6 | > 13.65 | – | – | – | –
3 | CC(=NNc1ccc(Cl)c(Cl)c1)c1cccnc1 [Compound 4, Methyl 3-pyridyl ketone 3,4-dichlorophenylhydrazone] | 69.8 | > 7.17 | I (They demonstrate anticonvulsant activity in either the MES test or the scMet test, or both at doses of 100 mg/kg or 30 mg/kg without signs of neurological deficit and thus have an estimated protective index of greater than 1) | > 500 | > 500 | 25 to 100 | – | – | – | – | – | – | – | – | –
4 | CC(=NNc1ccc(Cl)c(Cl)c1)c1ccncc1 [Compound 1, Methyl 4-pyridyl ketone 3,4-dichlorophenylhydrazone] | – | – | III (Those failing to demonstrate anticonvulsant activity at doses up to 300 mg/kg are considered inactive) | – | – | 25 to 95 | – | > 500 | > 250 | 16.9 | > 29.64 | 71 | I (They demonstrate anticonvulsant activity in either the MES test or the scMet test, or both at doses of 100 mg/kg or 30 mg/kg without signs of neurological deficit and thus have an estimated protective index of greater than 1) | 62 | 16.9
5 | CC(=NNc1ccc(Cl)cc1)c1cccnc1 [Compound 5, Methyl 3-pyridyl ketone 4-chlorophenylhydrazone] | – | – | I (They demonstrate anticonvulsant activity in either the MES test or the scMet test, or both at doses of 100 mg/kg or 30 mg/kg without signs of neurological deficit and thus have an estimated protective index of greater than 1) | – | – | 50 to 100 | – | > 500 | > 250 | 7.79 | > 64.12 | – | – | – | 7.8
